Values of other authors, collected in US20250319028A1, “PHARMACEUTICAL FORMULATION COMPRISING TACROLIMUS, METHOD FOR THE PREPARATION THEREOF AND USE” (PHARMATHEN S.A., priority 2021, published 2025).

Assays:
[1] = reported, patients

Solubility in ethanol (ethanol) | Solubility in heptane (heptane) | Solubility in water (water) | Compound | Overall incidence of drug-induced nephrotoxicity [1] [%]
 |  |  | C=CC[C@@H]1/C=C(\C)C[C@H](C)C[C@H](OC)[C@H]2O[C@@](O)(C(=O)C(=O)N3CCCC[C@H]3C(=O)O[C@H](/C(C)=C/[C@@H]3CC[C@@H](O)[C@H](OC)C3)[C@H](C)[C@@H](O)CC1=O)[C@H](C)C[C@@H]2OC [Tacrolimus] | ≤ 44
freely soluble | practically insoluble | practically insoluble | C=CC[C@@H]1/C=C(\C)C[C@H](C)C[C@H](OC)[C@H]2O[C@@](O)(C(=O)C(=O)N3CCCC[C@H]3C(=O)O[C@H](/C(C)=C/[C@@H]3CC[C@@H](O)[C@H](OC)C3)[C@H](C)[C@@H](O)CC1=O)[C@H](C)C[C@@H]2OC [Tacrolimus monohydrate] | 
